Measured values from patent publication US20020098213A1, “USE OF ELLAGIC ACID AND ITS DERIVATIVES IN COSMETICS AND DERMATOLOGY” (priority 1997, published 2002).

Assays:
[1] = system: normal human keratinocytes; test: XTT viability test and microscopic observation of the cells; type: cell-based; details: test concentration 0.5 μg per ml; plate treated in parallel
Procedure: The cells are inoculated in a 96-well culture plate at a rate of 25,000 NHK per well in SFMc. After incubation for 24 h, which is necessary for good adhesion of the cells, the medium is replaced with SFMc diluted to 2% to limit the proliferation of the keratinocytes during the test. The test concentration of ellagic acid is 0.5 microgram per ml of test medium, which is obtained immediately beforehand from a stock solution containing 0.5 mg of ellagic acid per ml of DMSO. The final concentration of DMSO in the test medium is therefore 0.1% V/Vfinal. This concentration is not toxic to the cells. The control consists of SFMc test medium diluted to 2%, to which 0.1% V/V of DMSO has been added. Six cultures are prepared for the test product and six for the control experiment.
A plate treated in parallel is used for the XTT viability test with the XTT kit from Boehringer, reference 146 50 15, in order to measure the mitochondrial dehydrogenase activity of the viable cells.

[2] = system: collagen VII in a culture of normal human keratinocytes; test: ELISA of collagen VII in supernatants of normal human keratinocyte cultures; type: cell-based; details: ellagic acid 0.5 μg/ml; for RODC for 72 h of incubation: reduced optical density corrected to 100 μg cellular proteins; for A for 72 h of incubation (activity on the proportion of collagen VII): relative to control culture

O=c1oc2c(O)c(O)cc3c(=O)oc4c(O)c(O)cc1c4c23 [Ellagic acid, 2,3,7,8-tetrahydroxy(1)-benzopyrano-pyrano (5,4,3-cde)(1)benzopyran-5,10-dione]
viability (mitochondrial dehydrogenase activity of viable cells, XTT; microscopic observation) [1]: No significant drop in viability | RODC for 72 h of incubation ([2]; NHK 1106P1 (face-lift)): 1.563 ± 0.240 | A for 72 h of incubation (activity on the proportion of collagen VII) ([2]; NHK 1106P1 (face-lift)): +64% | RODC for 72 h of incubation ([2]; NHK 1124P2 (face-lift)): 1.098 ± 0.100 | A for 72 h of incubation (activity on the proportion of collagen VII) ([2]; NHK 1124P2 (face-lift)): +42% | proportion of collagen VII present in the culture media ([2]; both strains): large and significant increase
